The NIST ThermoML archive (doi:10.1016/j.jct.2012.06.009)
± gives the expanded uncertainty stated by the source.

Experiment: activity coefficient (dimensionless); of the first substance listed, at infinite dilution; xn = mol fraction of the nth substance listed
Settings: 101 kPa, Liquid, Chromatography, x1 = 0

Compound | activity coefficient (314.24 K) | activity coefficient (333.26 K) | activity coefficient (333.38 K) | activity coefficient (353.3 K) | activity coefficient (314.1 K) | activity coefficient (348.01 K) | activity coefficient (353.25 K) | other results
C=CCCCC [hex-1-ene] + CCCCCCCCCCCCCC(=O)O | 1.24 ± 0.1 | 1.22 ± 0.1 | 1.21 ± 0.1 | 1.18 ± 0.098 | – | – | – | –
C=CCCCC [hex-1-ene] + CCCCCCCCCC(=O)O | 1.56 ± 0.13 | 1.5 ± 0.13 | 1.49 ± 0.13 | 1.43 ± 0.12 | – | – | – | –
ClC(Cl)Cl [trichloromethane] + CCCCCCCCCC(=O)O | 0.846 ± 0.07 | 0.85 ± 0.071 | 0.827 ± 0.069 | 0.825 ± 0.069 | 0.823 ± 0.069 | – | – | –
ClC(Cl)Cl [trichloromethane] + CCCCCCCCCCCCCCCC(=O)O | – | – | – | – | – | 0.739 ± 0.063 | – | activity coefficient (340.19 K): 0.748 ± 0.063; activity coefficient (358.22 K): 0.759 ± 0.064
ClC=C(Cl)Cl [trichloroethene] + CCCCCCCCCCCCCC(=O)O | 0.843 ± 0.07 | 0.842 ± 0.07 | 0.838 ± 0.07 | 0.824 ± 0.069 | 0.847 ± 0.07 | – | 0.842 ± 0.07 | –
CCc1ccccc1 [ethylbenzene] + CCCCCCCCCCCCCCCC(=O)O | – | – | – | – | – | 1.05 ± 0.086 | – | activity coefficient (340.19 K): 1.04 ± 0.085; activity coefficient (358.22 K): 1.06 ± 0.087
CCCCCCC [heptane] + CCCCCCCCCC(=O)O | 1.9 ± 0.16 | 1.83 ± 0.16 | 1.82 ± 0.16 | 1.75 ± 0.15 | 1.87 ± 0.16 | – | – | –
Cc1ccccc1 [toluene] + CCCCCCCCCC(=O)O | 1.17 ± 0.097 | 1.12 ± 0.093 | 1.12 ± 0.092 | 1.16 ± 0.096 | 1.15 ± 0.095 | – | 1.14 ± 0.095 | –
CCCCCC [hexane] + CCCCCCCCCCCCCC(=O)O | – | – | – | – | – | – | – | activity coefficient (338.27 K): 1.34 ± 0.11; activity coefficient (348.3 K): 1.33 ± 0.11; activity coefficient (358.33 K): 1.33 ± 0.11
CC(C)O [propan-2-ol] + CCCCCCCCCC(=O)O | 1.58 ± 0.13 | 1.35 ± 0.11 | 1.36 ± 0.11 | 1.15 ± 0.097 | 1.56 ± 0.13 | – | 1.2 ± 0.1 | –
CCCCCC [hexane] + CCCCCCCCCC(=O)O | 1.77 ± 0.15 | 1.73 ± 0.15 | 1.7 ± 0.14 | 1.65 ± 0.14 | 1.75 ± 0.15 | – | – | –
CO [methanol] + CCCCCCCCCC(=O)O | 2.14 ± 0.18 | – | 1.84 ± 0.16 | 1.57 ± 0.13 | – | – | – | activity coefficient (353.08 K): 1.46 ± 0.12
CCCCCC [hexane] + CCCCCCCCCCCC(=O)O | 1.57 ± 0.13 | 1.53 ± 0.13 | 1.54 ± 0.13 | – | – | – | 1.5 ± 0.13 | –
CC(C)CC(C)(C)C [2,2,4-trimethylpentane] + CCCCCCCCCC(=O)O | 1.98 ± 0.17 | 1.91 ± 0.16 | – | – | 2.02 ± 0.17 | – | 1.86 ± 0.16 | –
CCCO [propan-1-ol] + CCCCCCCCCCCCCC(=O)O | 1.65 ± 0.14 | 1.52 ± 0.13 | 1.51 ± 0.13 | 1.37 ± 0.12 | 1.61 ± 0.14 | – | 1.37 ± 0.12 | –
COc1ccccc1 [anisole] + CCCCCCCCCCCCCCCC(=O)O | – | – | – | – | – | 1.28 ± 0.11 | – | activity coefficient (340.19 K): 1.3 ± 0.11; activity coefficient (358.22 K): 1.25 ± 0.1
Clc1ccccc1 [chlorobenzene] + CCCCCCCCCCCCCCCC(=O)O | – | – | – | – | – | 0.957 ± 0.079 | – | activity coefficient (340.19 K): 0.974 ± 0.08; activity coefficient (358.22 K): 0.974 ± 0.08
C1CCCCC1 [cyclohexane] + CCCCCCCCCCCCCC(=O)O | 1.09 ± 0.09 | – | 1.07 ± 0.088 | 1.02 ± 0.085 | 1.09 ± 0.09 | – | 1.05 ± 0.087 | –
CCCCO [butan-1-ol] + CCCCCCCCCCCCCC(=O)O | 1.54 ± 0.13 | 1.45 ± 0.12 | 1.42 ± 0.12 | 1.32 ± 0.12 | 1.49 ± 0.13 | – | 1.22 ± 0.11 | –
CC(C)=O [acetone] + CCCCCCCCCCCCCC(=O)O | 1.46 ± 0.12 | 1.36 ± 0.11 | 1.35 ± 0.11 | 1.27 ± 0.11 | 1.43 ± 0.12 | – | 1.3 ± 0.11 | –
CCO [ethanol] + CCCCCCCCCC(=O)O | 2.07 ± 0.18 | 1.73 ± 0.15 | 1.78 ± 0.15 | 1.48 ± 0.12 | 2.12 ± 0.18 | – | – | –
CCO [ethanol] + CCCCCCCCCCCC(=O)O | 2.02 ± 0.17 | – | 1.79 ± 0.15 | 1.57 ± 0.13 | 1.92 ± 0.17 | – | 1.56 ± 0.13 | –
CCCO [propan-1-ol] + CCCCCCCCCCCC(=O)O | 1.78 ± 0.15 | 1.57 ± 0.13 | 1.6 ± 0.14 | 1.43 ± 0.12 | 1.76 ± 0.15 | – | 1.43 ± 0.12 | –

Compound | activity coefficient (314.24 K) | activity coefficient (333.26 K) | activity coefficient (333.38 K) | activity coefficient (353.3 K) | activity coefficient (314.1 K) | activity coefficient (348.01 K) | activity coefficient (353.25 K) | other results
ClCCCl [1,2-dichloroethane] + CCCCCCCCCC(=O)O | 1.5 ± 0.13 | 1.35 ± 0.11 | 1.4 ± 0.12 | 1.27 ± 0.11 | 1.45 ± 0.12 | – | – | –
CCCCO [butan-1-ol] + CCCCCCCCCCCCCCCC(=O)O | – | – | – | – | – | 1.55 ± 0.13 | – | activity coefficient (340.19 K): 1.65 ± 0.14; activity coefficient (358.32 K): 1.43 ± 0.12
ClCc1ccccc1 [(chloromethyl)benzene] + CCCCCCCCCCCCCCCC(=O)O | – | – | – | – | – | 1.62 ± 0.14 | – | activity coefficient (358.22 K): 1.57 ± 0.13
CC(C)O [propan-2-ol] + CCCCCCCCCCCC(=O)O | 1.53 ± 0.13 | 1.33 ± 0.11 | 1.37 ± 0.12 | 1.24 ± 0.1 | 1.5 ± 0.13 | – | 1.22 ± 0.1 | –
ClC=C(Cl)Cl [trichloroethene] + CCCCCCCCCC(=O)O | 1.04 ± 0.085 | 1 ± 0.082 | 1.01 ± 0.083 | 0.969 ± 0.08 | 1.05 ± 0.086 | – | – | activity coefficient (353.08 K): 0.945 ± 0.078
C=CCCCC [hex-1-ene] + CCCCCCCCCCCCCCCC(=O)O | – | – | – | – | – | 1.18 ± 0.098 | – | activity coefficient (340.17 K): 1.17 ± 0.097; activity coefficient (358.22 K): 1.2 ± 0.1
CCc1ccccc1 [ethylbenzene] + CCCCCCCCCC(=O)O | – | 1.28 ± 0.11 | – | 1.22 ± 0.1 | – | – | – | activity coefficient (333.35 K): 1.3 ± 0.11
Clc1ccccc1 [chlorobenzene] + CCCCCCCCCCCC(=O)O | 1.12 ± 0.092 | 1.08 ± 0.089 | – | – | 1.11 ± 0.091 | – | 1.07 ± 0.088 | activity coefficient (343.65 K): 1.07 ± 0.089
CCCCCCC [heptane] + CCCCCCCCCCCCCC(=O)O | 1.47 ± 0.12 | – | 1.43 ± 0.12 | 1.4 ± 0.12 | 1.45 ± 0.12 | – | 1.4 ± 0.12 | –
ClC(Cl)Cl [trichloromethane] + CCCCCCCCCCCC(=O)O | 0.81 ± 0.068 | 0.832 ± 0.069 | 0.818 ± 0.068 | 0.839 ± 0.07 | 0.81 ± 0.068 | – | – | –
C1CCCCC1 [cyclohexane] + CCCCCCCCCCCCCCCC(=O)O | – | – | – | – | – | 1.02 ± 0.084 | – | activity coefficient (340.19 K): 1.03 ± 0.085; activity coefficient (358.22 K): 1.01 ± 0.083
CCCCO [butan-1-ol] + CCCCCCCCCC(=O)O | – | 1.48 ± 0.13 | – | 1.32 ± 0.11 | – | – | 1.34 ± 0.11 | activity coefficient (333.35 K): 1.53 ± 0.13
CC(C)CC(C)(C)C [2,2,4-trimethylpentane] + CCCCCCCCCCCCCC(=O)O | – | – | – | – | – | – | – | activity coefficient (338.27 K): 1.53 ± 0.13; activity coefficient (348.3 K): 1.5 ± 0.13; activity coefficient (358.33 K): 1.45 ± 0.12
C1CCCCC1 [cyclohexane] + CCCCCCCCCCCC(=O)O | 1.28 ± 0.11 | – | 1.25 ± 0.1 | 1.2 ± 0.1 | 1.29 ± 0.11 | – | 1.2 ± 0.1 | –
CC(C)CC(C)(C)C [2,2,4-trimethylpentane] + CCCCCCCCCCCC(=O)O | 1.77 ± 0.15 | 1.7 ± 0.14 | 1.72 ± 0.15 | 1.69 ± 0.14 | 1.75 ± 0.15 | – | 1.67 ± 0.14 | –
CC(C)O [propan-2-ol] + CCCCCCCCCCCCCCCC(=O)O | – | – | – | – | – | 1.41 ± 0.12 | – | activity coefficient (340.19 K): 1.47 ± 0.12; activity coefficient (358.32 K): 1.29 ± 0.11
Cc1ccccc1 [toluene] + CCCCCCCCCCCC(=O)O | 1.08 ± 0.089 | 1.07 ± 0.088 | 1.04 ± 0.086 | 1.05 ± 0.087 | 1.06 ± 0.088 | – | – | –
CCC(C)O (centres undefined) [butan-2-ol] + CCCCCCCCCCCCCCCC(=O)O | – | – | – | – | – | 1.2 ± 0.1 | – | activity coefficient (340.19 K): 1.26 ± 0.1; activity coefficient (358.32 K): 1.12 ± 0.092
ClCCCl [1,2-dichloroethane] + CCCCCCCCCCCCCCCC(=O)O | – | – | – | – | – | 1.19 ± 0.099 | – | activity coefficient (340.19 K): 1.22 ± 0.1; activity coefficient (358.22 K): 1.14 ± 0.095
Cc1ccccc1 [toluene] + CCCCCCCCCCCCCCCC(=O)O | – | – | – | – | – | 0.935 ± 0.077 | – | activity coefficient (340.19 K): 0.934 ± 0.077; activity coefficient (358.22 K): 0.934 ± 0.077
CO [methanol] + CCCCCCCCCCCC(=O)O | – | 1.67 ± 0.14 | – | 1.58 ± 0.13 | 1.81 ± 0.15 | – | – | activity coefficient (328.82 K): 1.9 ± 0.16; activity coefficient (343.65 K): 1.66 ± 0.14
ClC=C(Cl)Cl [trichloroethene] + CCCCCCCCCCCCCCCC(=O)O | – | – | – | – | – | 0.826 ± 0.069 | – | activity coefficient (340.19 K): 0.831 ± 0.069; activity coefficient (358.22 K): 0.831 ± 0.069
CC(C)CC(C)(C)C [2,2,4-trimethylpentane] + CCCCCCCCCCCCCCCC(=O)O | – | – | – | – | – | 1.46 ± 0.12 | – | activity coefficient (340.19 K): 1.5 ± 0.13; activity coefficient (358.32 K): 1.42 ± 0.12
